Laboratory results as given in US20070254863A1 (priority 2006, published 2007).
Like-named read-outs stand apart in the source and are kept apart here.

Columns and labels:
hamster SUR1 = molecular target: T1, hamster SUR1 (Cricetus cricetus, UniProt Q09427); assay: In vitro binding affinity to rodent KATP channels: SUR1 ([3H]glibenclamide displacement, COS cell membranes); details: hamster SUR1 in COS cell membranes; read-out: Affinity to SUR 1 (converted)
T1 construct: expressed in transfected cells; host or cells: COS-1 cells, transient (pcDNA vector)
T1 sequence (Q09427 whole entry): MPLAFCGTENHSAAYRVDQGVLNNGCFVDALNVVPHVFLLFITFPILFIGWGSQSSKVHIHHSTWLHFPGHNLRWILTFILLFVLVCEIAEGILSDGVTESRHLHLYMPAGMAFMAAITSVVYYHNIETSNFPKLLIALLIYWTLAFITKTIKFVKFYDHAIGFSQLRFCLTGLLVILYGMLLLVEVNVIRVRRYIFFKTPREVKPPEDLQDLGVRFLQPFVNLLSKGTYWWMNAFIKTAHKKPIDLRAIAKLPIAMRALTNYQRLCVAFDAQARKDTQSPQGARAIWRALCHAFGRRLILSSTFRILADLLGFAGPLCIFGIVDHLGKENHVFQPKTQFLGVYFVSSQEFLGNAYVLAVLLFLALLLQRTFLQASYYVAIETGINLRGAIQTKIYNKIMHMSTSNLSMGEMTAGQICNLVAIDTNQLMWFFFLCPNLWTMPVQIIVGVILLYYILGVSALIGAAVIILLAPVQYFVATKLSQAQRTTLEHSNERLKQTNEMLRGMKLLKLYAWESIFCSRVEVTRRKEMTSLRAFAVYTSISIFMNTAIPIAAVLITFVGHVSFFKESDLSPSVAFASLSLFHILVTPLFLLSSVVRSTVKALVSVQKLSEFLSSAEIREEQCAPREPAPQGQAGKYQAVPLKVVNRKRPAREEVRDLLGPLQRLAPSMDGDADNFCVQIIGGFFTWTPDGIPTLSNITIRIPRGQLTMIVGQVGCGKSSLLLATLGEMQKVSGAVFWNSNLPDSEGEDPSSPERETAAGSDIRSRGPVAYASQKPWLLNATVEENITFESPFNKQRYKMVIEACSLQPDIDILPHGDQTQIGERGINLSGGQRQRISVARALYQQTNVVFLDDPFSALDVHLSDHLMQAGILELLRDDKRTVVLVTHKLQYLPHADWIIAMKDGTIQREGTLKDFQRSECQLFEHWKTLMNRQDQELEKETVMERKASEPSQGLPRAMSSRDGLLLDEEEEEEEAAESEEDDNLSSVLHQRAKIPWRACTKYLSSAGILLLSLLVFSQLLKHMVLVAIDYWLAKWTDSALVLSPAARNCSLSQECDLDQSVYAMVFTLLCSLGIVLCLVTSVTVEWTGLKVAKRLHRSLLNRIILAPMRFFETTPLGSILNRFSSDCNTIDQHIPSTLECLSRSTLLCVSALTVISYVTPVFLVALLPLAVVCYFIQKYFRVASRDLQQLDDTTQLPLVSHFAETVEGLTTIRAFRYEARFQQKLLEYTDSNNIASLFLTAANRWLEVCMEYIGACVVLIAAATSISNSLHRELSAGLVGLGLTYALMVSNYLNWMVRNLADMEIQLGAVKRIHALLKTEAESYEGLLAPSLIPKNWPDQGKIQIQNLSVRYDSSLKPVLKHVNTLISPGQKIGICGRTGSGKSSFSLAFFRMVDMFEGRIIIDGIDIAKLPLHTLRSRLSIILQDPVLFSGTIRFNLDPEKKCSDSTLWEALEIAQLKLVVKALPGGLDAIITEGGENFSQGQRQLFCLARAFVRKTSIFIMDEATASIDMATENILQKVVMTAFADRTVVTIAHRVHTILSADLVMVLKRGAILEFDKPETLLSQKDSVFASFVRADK
Description: 1. In Vitro Binding Affinity of the Test Compounds to Rodent KATP Channels
Competitive binding experiments were performed to characterize the affinity of the test compounds for the binding sites for sulfonylureas and KATP channel openers (KCOS) on hamster SUR1. To assess the affinity for the sulfonylurea site, membranes from COS-cells transiently expressing hamster SUR1 were incubated in the presence of [^3H]glibenclamide with increasing concentrations of test compounds. […] For each test compound four displacement curves were measured (+/−MgATP from the human and hamster isoform). Per curve 9-15 distinct concentrations were tested covering the relevant range. All measurements were repeated at least 5 times in independent experiments.
(§1) [^3H]glibenclamide (specific activity 51 Ci mmol^−1) was obtained from NEN (Dreieich, Germany). Where needed, stock solutions were prepared in dimethylsulfoxide with a final solvent concentration in the media below 1%.
(§2) SUR- or Kir6.x isoforms were used either subcloned in the pcDNA (hamster SUR1, mouse Kir6.2) or pCMV vector (rat SUR2A, SUR2B).
(§3) For transfection, the cells were incubated 4 hours in a Tris-buffered salt solution containing DNA (5-10 μg/ml) plus DEAE-dextran (1 mg/ml), 2 min in HEPES-buffered salt solution plus dimethylsulfoxide (10%) and 4 hours in DMEM-HG plus chloroquine (100 μM). Cells were then returned to DMEM-HG plus 10% FCS. […] For binding experiments, resuspended membranes (final protein concentration 5-50 μg/ml) were incubated in “Tris-buffer” (50 mM, pH 7.4) containing either [^3H]glibenclamide (final concentration 0.3 nM or 3 nM and nonspecific binding defined by 100 nM or 1 μM glibenclamide for SUR1 or SUR2Y1205S-isoforms, respectively) or [^3H]P1075 (final concentration 3 nM, nonspecific binding defined by 100 μM pinacidil) and increasing concentrations of the test compounds. The free Mg^2+ concentration were kept close to 0.7 mM. […] Incubations were carried out for 1 h at room temperature and were terminated by rapid filtration through Whatman GF/B filters.
(§4) The inhibition constant (Ki value) of the test substances was calculated from the respective IC50 value, and was stated as the negative logarithmic value thereof (pKi).

rat SUR2A = rat SUR2A (Rattus norvegicus, UniProt Q63563); assay: In vitro binding affinity to rodent KATP channels: SUR2A ([3H]P1075 / [3H]glibenclamide displacement, COS cell membranes)
rat SUR2A, sequence (Q63563 whole entry): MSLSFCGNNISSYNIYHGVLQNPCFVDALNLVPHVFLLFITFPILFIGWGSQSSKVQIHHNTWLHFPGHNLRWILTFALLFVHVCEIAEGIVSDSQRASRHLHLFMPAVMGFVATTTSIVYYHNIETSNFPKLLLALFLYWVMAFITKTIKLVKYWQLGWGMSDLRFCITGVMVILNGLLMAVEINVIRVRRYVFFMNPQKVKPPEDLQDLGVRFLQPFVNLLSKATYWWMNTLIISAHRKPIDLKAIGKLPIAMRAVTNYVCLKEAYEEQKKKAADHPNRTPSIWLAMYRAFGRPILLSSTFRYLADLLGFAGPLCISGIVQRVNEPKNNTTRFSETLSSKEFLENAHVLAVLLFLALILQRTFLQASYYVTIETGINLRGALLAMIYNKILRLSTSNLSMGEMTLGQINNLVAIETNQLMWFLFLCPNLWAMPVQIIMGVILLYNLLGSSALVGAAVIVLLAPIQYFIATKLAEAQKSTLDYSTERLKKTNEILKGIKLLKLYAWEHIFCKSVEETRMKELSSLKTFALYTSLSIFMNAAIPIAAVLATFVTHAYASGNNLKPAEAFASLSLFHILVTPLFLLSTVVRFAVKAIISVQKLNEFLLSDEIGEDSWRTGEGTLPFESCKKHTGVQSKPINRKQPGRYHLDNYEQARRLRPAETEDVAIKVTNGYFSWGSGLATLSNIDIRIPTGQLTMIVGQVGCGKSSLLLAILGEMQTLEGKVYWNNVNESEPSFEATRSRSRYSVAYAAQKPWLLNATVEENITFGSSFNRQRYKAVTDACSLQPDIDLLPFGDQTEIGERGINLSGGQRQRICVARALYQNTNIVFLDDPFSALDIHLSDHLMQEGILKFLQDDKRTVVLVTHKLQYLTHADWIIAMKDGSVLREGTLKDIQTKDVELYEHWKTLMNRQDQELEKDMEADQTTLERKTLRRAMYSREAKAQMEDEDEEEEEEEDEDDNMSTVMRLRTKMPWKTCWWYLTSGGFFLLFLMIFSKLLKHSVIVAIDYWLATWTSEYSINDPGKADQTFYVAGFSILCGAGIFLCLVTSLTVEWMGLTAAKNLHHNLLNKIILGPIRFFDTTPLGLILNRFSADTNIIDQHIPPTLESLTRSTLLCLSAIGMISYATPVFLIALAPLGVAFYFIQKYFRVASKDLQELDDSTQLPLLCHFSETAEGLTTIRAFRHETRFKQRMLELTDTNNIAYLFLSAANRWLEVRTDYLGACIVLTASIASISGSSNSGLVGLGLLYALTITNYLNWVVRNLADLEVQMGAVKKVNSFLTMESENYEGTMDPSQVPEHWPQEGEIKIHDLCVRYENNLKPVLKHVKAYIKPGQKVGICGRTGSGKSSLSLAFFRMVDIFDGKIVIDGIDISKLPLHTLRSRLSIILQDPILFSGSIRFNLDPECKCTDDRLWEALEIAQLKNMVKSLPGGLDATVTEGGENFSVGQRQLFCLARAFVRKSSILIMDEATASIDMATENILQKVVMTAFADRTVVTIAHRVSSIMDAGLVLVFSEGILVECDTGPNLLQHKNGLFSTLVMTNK
Description: Therefore, two strategies can be used to detect binding to the sulfonylurea site on SUR2A.
Membranes from COS-cells transiently expressing rat SUR2A were incubated in the presence of the radioligands with increasing concentrations of test compounds as described above. […] For each test compound four displacement curves were measured (displacement of [^3H]P1075 from the rat isoform of the wild type receptor and displacement of [^3H]glibenclamide from the rat isoform of SUR2AY1205S). Per curve 9-15 distinct concentrations were tested covering the relevant range. All measurements were repeated at least 5 times in independent experiments.
as §1, §2, §3, §4

[1] = molecular target: human cannabinoid CB2 receptor (Homo sapiens, UniProt P34972); assay: biochemical; assay type: binding
human cannabinoid CB2 receptor, sequence (P34972 whole entry): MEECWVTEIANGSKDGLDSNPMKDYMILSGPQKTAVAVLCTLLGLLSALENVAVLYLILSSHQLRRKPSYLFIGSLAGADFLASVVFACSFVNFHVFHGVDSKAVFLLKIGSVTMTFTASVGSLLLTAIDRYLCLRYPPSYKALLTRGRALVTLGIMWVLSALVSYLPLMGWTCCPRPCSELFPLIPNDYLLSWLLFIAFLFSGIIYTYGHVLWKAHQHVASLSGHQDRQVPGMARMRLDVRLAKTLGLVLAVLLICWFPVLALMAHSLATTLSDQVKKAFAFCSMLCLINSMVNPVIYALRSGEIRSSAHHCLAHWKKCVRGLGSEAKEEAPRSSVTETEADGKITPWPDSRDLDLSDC
Description: 3. In Vitro Binding Affinity of the Test Compounds to CB2 Receptors
After incubation of a freshly prepared cell membrane preparation with the [^3H]-ligand, with or without the addition of the compounds described herein, separation of bound and free ligand is performed by filtration over glass-fiber filters. Radioactivity on the filter is measured by liquid scintillation counting.

[2] = cloned human CB2 receptor expressed in CHO cells, read-out: Affinity to CB2 (converted)

SMILES | Ki (hamster SUR1) [µM] | pKi (rat SUR2A) | Ki [1, 2] [µM] | pKi (rat SUR2A; rat SUR2A in COS cell membranes) | Ki [1] [µM]
CSc1c(C(=O)NN2CCCCC2)nc(-c2ccc(Cl)cc2Cl)n1-c1ccc(Cl)cc1 [1-(4-Chloro-phenyl)-2-(2,4-dichloro-phenyl)-5-methylsulfanyl-1H-imidazole-4-carboxylic acid piperidin-1-ylamide] | 7.94 | 5.6 | 1 |  | 
Cn1c(C(=O)NN2CCCCC2)nc(-c2cc(Cl)ccc2Cl)c1-c1ccc(Cl)cc1 [5-(4-Chloro-phenyl)-4-(2,5-dichloro-phenyl)-1-methyl 1H-imidazole-2-carboxylic acid piperidin-1-ylamide] | 25.1 | 5.0 | 0.398 |  | 
O=S(=O)(N=C(NCc1cccnc1)N1CC(c2ccccc2)C(c2ccc(Cl)cc2)=N1)c1ccc(Cl)cc1 (stereo not drawn) [4-Chloro-N-{[3-(4-chloro-phenyl)-4-phenyl-4,5-dihydro-pyrazol-1-yl]-[(pyridin-3-ylmethyl)-amino]-methylene}-benzenesulfonamide] | 1.26 | 5.7 | 0.501 |  | 
CC(C)(CO)CN/C(=N\S(=O)(=O)c1ccc(Cl)cc1)N1CC(c2ccccc2)C(c2ccc(Cl)cc2)=N1 (stereo not drawn) [4-Chloro-N-[[3-(4-chloro-phenyl)-4-phenyl-4,5-dihydro-pyrazol-1-yl]-(3-hydroxy-2,2-dimethyl-propylamino)-methylene]-benzenesulfonamide] | 31.6 | 5.4 | 0.794 |  | 
CCc1c(C(=O)NC2CCCCC2)nc(-c2ccc(C)n2C)n1-c1ccccc1 [2-(1,5-Dimethyl-1H-pyrrol-2-yl)-5-ethyl-1-phenyl-1H-imidazole-4-carboxylic acid cyclohexylamide] | 100 |  | 0.158 | 4.0 | 
O=C(NN1CCCCC1)C1=NN(c2ccc(Cl)cc2Cl)C(c2ccc(Cl)cc2)C1 (stereo not drawn) [5-(4-Chloro-phenyl)-1-(2,4-dichloro-phenyl)-4,5-dihydro-1H-pyrazole-3-carboxylic acid piperidine-1-ylamide] | 3.98 | 5.6 | 0.794 |  | 
C[C@H](NS(C)(=O)=O)c1ccc(S(=O)(=O)c2ccc(Cl)cc2S(=O)(=O)c2ccccc2F)cc1 [N-(1-{4-[4-Chloro-2-(2-fluoro-benzenesulfonyl)-benzenesulfonyl]-phenyl}-ethyl)-methanesulfonamide, reference compound] | 1.26 | 4.7 |  |  | 0.000501
CN1CCC(CNC(=NS(=O)(=O)c2ccc(Cl)cc2)N2CC(c3ccccc3)C(c3ccc(Cl)cc3)=N2)C1 (stereo not drawn) [4-Chloro-N-{[3-(4-chloro-phenyl)-4-phenyl-4,5-dihydro-pyrazol-1-yl]-[(1-methyl-pyrrolidin-3-ylmethyl)-amino]-methylene]-benzenesulfonamide] | 1 | 4.8 | 1 |  | 
NC(=NS(=O)(=O)c1ccc(Cl)cc1)N1CC(c2ccccc2)C(c2ccc(Cl)cc2)=N1 (stereo not drawn) [N-{Amino-[3-(4-chloro-phenyl)-4-phenyl-4,5-dihydro-pyrazol-1-yl]-methylene}-4-chloro-benzenesulfonamide] | 1 | 5.1 |  |  | 0.398
CCc1c(C(=O)NC2CCCCC2)nc(-c2ccc(Cl)cc2Cl)n1-c1ccc(Br)cc1 [1-(4-Bromo-phenyl)-2-(2,4-dichloro-phenyl)-5-ethyl-1H-imidazole-4-carboxylic acid cyclohexylamide] | 100 | 5.1 | 0.2 |  | 
N=C(N)C1=NN(c2ccc(Cl)cc2)C(c2ccccc2)C1 (stereo not drawn) [1-(4-Chloro-phenyl)-5-phenyl-4,5-dihydro-1H-pyrazole-3-carboxamidine] | 100 | 4.0 | 0.501 |  | 
CCc1c(C(=O)NN2CCCCC2)nc(-c2ncccc2C)n1-c1ccc(Cl)cc1 [1-(4-Chloro-phenyl)-5-ethyl-2-(3-methyl-pyridin-2-yl)-1H-imidazole-4-carboxylic acid piperidin-1-ylamide] | 100 | 4.8 | 0.251 |  | 
